# Several values for one entry are separate records, joined by “and”; a condition that tells them apart may be missing. Equal entries are not always repeated. Where two headings read alike, the source gives them in different places.
# How the values were obtained:
# P. falciparum Dd2-2D4 = test: P. falciparum asexual blood stage (ABS) growth assay, SYBR Green, 72 h, wild-type parasites; format: cell-based, Plasmodium falciparum; details: Plasmodium falciparum, DD2; SI Fig 16b; values on -log scale; read-out: ABS - Dd2-2D4 (converted)
# HsProRS = HsProRS (Homo sapiens, UniProt P07814); test: TR-FRET ligand displacement assay with tracer MAT379 (CoraFluor-1-Halo and anti-His6 antibody formats); format: binding; design: made in house; host or cells: E. coli SoluBL-21; details: for TR-FRET dose-response, normalized signal (SI Fig 11): individual replicates
# Sequence of HsProRS (P07814 996-1512): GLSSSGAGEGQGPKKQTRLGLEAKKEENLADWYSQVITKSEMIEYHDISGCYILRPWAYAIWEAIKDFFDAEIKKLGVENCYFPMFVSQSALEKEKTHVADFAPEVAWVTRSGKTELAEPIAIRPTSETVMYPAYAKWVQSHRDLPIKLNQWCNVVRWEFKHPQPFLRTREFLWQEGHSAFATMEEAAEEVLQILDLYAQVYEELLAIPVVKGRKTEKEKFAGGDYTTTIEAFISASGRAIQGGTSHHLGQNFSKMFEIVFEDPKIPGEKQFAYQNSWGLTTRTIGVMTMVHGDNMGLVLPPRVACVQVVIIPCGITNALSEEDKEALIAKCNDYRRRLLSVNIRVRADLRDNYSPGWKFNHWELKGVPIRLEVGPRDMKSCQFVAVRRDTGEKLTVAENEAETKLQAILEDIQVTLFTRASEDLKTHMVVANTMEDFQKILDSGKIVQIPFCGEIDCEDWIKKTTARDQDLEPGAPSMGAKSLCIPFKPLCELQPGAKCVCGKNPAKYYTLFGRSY
# PfcProRS = molecular target: T1, PfcProRS (Plasmodium falciparum, UniProt Q8I5R7); format: binding; details: for dose-response signal (normalized), SI Fig 8: single replicates
# T1 construct: made in house; host or cells: E. coli SoluBL-21
# T1 sequence (Q8I5R7 249-746): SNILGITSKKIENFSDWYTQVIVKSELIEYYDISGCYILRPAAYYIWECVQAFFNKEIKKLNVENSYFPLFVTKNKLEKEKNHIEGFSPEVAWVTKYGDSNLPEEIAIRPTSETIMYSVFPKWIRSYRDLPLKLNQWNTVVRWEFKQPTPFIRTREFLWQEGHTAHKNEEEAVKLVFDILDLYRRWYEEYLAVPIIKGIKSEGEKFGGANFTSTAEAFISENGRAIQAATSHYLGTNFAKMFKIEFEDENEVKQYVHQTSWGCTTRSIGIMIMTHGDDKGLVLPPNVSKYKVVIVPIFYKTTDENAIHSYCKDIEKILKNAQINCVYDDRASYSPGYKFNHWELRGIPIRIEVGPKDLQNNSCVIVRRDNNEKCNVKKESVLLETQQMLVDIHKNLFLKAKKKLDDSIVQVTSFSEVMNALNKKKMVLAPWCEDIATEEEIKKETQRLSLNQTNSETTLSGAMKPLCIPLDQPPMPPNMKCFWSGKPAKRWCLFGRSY
smiles,measurement,setting,value
O=C(Nc1nccnc1C(=O)NC1Cc2ccccc2C1)c1ccccc1 [compound 21],EC50,P. falciparum Dd2-2D4,9.59 µM
same,Kd,"HsProRS; HsProRS (KD [nM]) mean, no added proline/ATP (-)",7830 nM
same,Kd,"HsProRS; HsProRS - best Kd, SI Fig 16a, values on -log scale",140 nM
same,"normalized TR-FRET ligand displacement signal, dose-response replicates (SI Fig 6)",HsProRS; Log[inhibitor] (M) -5.000,5.46E-01 and 5.55E-01 and 4.94E-01
same,"TR-FRET dose-response, normalized signal (SI Fig 11)",HsProRS; Log[inhibitor] (M) -5.000,4.76E-01 and 4.38E-01 and 4.70E-01
same,"normalized TR-FRET ligand displacement signal, dose-response replicates (SI Fig 6)",HsProRS; Log[inhibitor] (M) -5.301,7.40E-01 and 7.43E-01 and 7.80E-01
same,"TR-FRET dose-response, normalized signal (SI Fig 11)",HsProRS; Log[inhibitor] (M) -5.301,6.10E-01 and 6.26E-01 and 6.30E-01
same,"normalized TR-FRET ligand displacement signal, dose-response replicates (SI Fig 6)",HsProRS; Log[inhibitor] (M) -5.601,9.19E-01 and 8.75E-01 and 9.42E-01
same,"TR-FRET dose-response, normalized signal (SI Fig 11)",HsProRS; Log[inhibitor] (M) -5.601,7.50E-01 and 7.65E-01 and 7.70E-01
same,"normalized TR-FRET ligand displacement signal, dose-response replicates (SI Fig 6)",HsProRS; Log[inhibitor] (M) -5.904,9.17E-01 and 1.01E+00 and 8.04E-01
same,"TR-FRET dose-response, normalized signal (SI Fig 11)",HsProRS; Log[inhibitor] (M) -5.904,8.93E-01 and 9.01E-01 and 8.63E-01
same,"normalized TR-FRET ligand displacement signal, dose-response replicates (SI Fig 6)",HsProRS; Log[inhibitor] (M) -6.208,9.67E-01 and 9.54E-01 and 1.10E+00
same,"TR-FRET dose-response, normalized signal (SI Fig 11)",HsProRS; Log[inhibitor] (M) -6.208,8.73E-01 and 9.00E-01 and 9.32E-01
same,"normalized TR-FRET ligand displacement signal, dose-response replicates (SI Fig 6)",HsProRS; Log[inhibitor] (M) -6.509,9.94E-01 and 9.87E-01 and 9.37E-01
same,"TR-FRET dose-response, normalized signal (SI Fig 11)",HsProRS; Log[inhibitor] (M) -6.509,9.94E-01 and 8.74E-01 and 9.48E-01
same,"normalized TR-FRET ligand displacement signal, dose-response replicates (SI Fig 6)",HsProRS; Log[inhibitor] (M) -6.796,1.04E+00 (2×) and 9.65E-01
same,"TR-FRET dose-response, normalized signal (SI Fig 11)",HsProRS; Log[inhibitor] (M) -6.796,9.17E-01 and 9.74E-01 and 9.27E-01
same,"normalized TR-FRET ligand displacement signal, dose-response replicates (SI Fig 6)",HsProRS; Log[inhibitor] (M) -7.108,1.01E+00 and 1.08E+00 and 1.09E+00
same,"TR-FRET dose-response, normalized signal (SI Fig 11)",HsProRS; Log[inhibitor] (M) -7.108,9.75E-01 and 8.96E-01 and 1.01E+00
same,"normalized TR-FRET ligand displacement signal, dose-response replicates (SI Fig 6)",HsProRS; Log[inhibitor] (M) -7.409,1.16E+00 and 9.90E-01 and 9.46E-01
same,"TR-FRET dose-response, normalized signal (SI Fig 11)",HsProRS; Log[inhibitor] (M) -7.409,9.43E-01 and 9.53E-01 and 9.38E-01
same,"normalized TR-FRET ligand displacement signal, dose-response replicates (SI Fig 6)",HsProRS; Log[inhibitor] (M) -7.710,1.13E+00 and 9.28E-01 and 1.00E+00
same,"TR-FRET dose-response, normalized signal (SI Fig 11)",HsProRS; Log[inhibitor] (M) -7.710,1.01E+00 and 9.57E-01 and 9.99E-01
same,"normalized TR-FRET ligand displacement signal, dose-response replicates (SI Fig 6)",HsProRS; Log[inhibitor] (M) -8.000,1.06E+00 and 9.95E-01 and 9.77E-01
same,"TR-FRET dose-response, normalized signal (SI Fig 11)",HsProRS; Log[inhibitor] (M) -8.000,9.75E-01 and 9.47E-01 and 9.43E-01
same,"normalized TR-FRET ligand displacement signal, dose-response replicates (SI Fig 6)",HsProRS; Log[inhibitor] (M) -8.301,9.85E-01 and 1.04E+00 and 1.05E+00
same,"TR-FRET dose-response, normalized signal (SI Fig 11)",HsProRS; Log[inhibitor] (M) -8.301,8.99E-01 and 9.31E-01 and 9.94E-01
same,"normalized TR-FRET ligand displacement signal, dose-response replicates (SI Fig 6)",HsProRS; Log[inhibitor] (M) -8.602,9.47E-01 and 9.26E-01 and 9.87E-01
same,"TR-FRET dose-response, normalized signal (SI Fig 11)",HsProRS; Log[inhibitor] (M) -8.602,9.70E-01 and 9.30E-01 and 9.54E-01
same,"normalized TR-FRET ligand displacement signal, dose-response replicates (SI Fig 6)",HsProRS; Log[inhibitor] (M) -9.000,9.16E-01 and 9.83E-01 and 9.58E-01
same,"TR-FRET dose-response, normalized signal (SI Fig 11)",HsProRS; Log[inhibitor] (M) -9.000,9.06E-01 and 1.03E+00 and 9.30E-01
same,"normalized TR-FRET ligand displacement signal, dose-response replicates (SI Fig 6)",HsProRS; Log[inhibitor] (M) -9.301,8.87E-01 and 1.01E+00 (2×)
same,"TR-FRET dose-response, normalized signal (SI Fig 11)",HsProRS; Log[inhibitor] (M) -9.301,9.47E-01 and 9.42E-01 and 9.85E-01
same,"dose-response signal (normalized), SI Fig 8",PfcProRS; Log[inhibitor] (M) -5.000,2.91E-01 and 3.96E-01 and 3.40E-01
same,"dose-response signal (normalized), SI Fig 8",PfcProRS; Log[inhibitor] (M) -5.301,6.52E-01 and 5.68E-01 and 6.33E-01
same,"dose-response signal (normalized), SI Fig 8",PfcProRS; Log[inhibitor] (M) -5.601,7.76E-01 and 6.88E-01 and 8.76E-01
same,"dose-response signal (normalized), SI Fig 8",PfcProRS; Log[inhibitor] (M) -5.904,1.01E+00 and 9.17E-01 and 9.47E-01
same,"dose-response signal (normalized), SI Fig 8",PfcProRS; Log[inhibitor] (M) -6.208,1.01E+00 and 1.00E+00 and 8.81E-01
same,"dose-response signal (normalized), SI Fig 8",PfcProRS; Log[inhibitor] (M) -6.509,9.40E-01 and 8.71E-01 and 1.01E+00
same,"dose-response signal (normalized), SI Fig 8",PfcProRS; Log[inhibitor] (M) -6.796,1.06E+00 and 9.99E-01 and 1.08E+00
same,"dose-response signal (normalized), SI Fig 8",PfcProRS; Log[inhibitor] (M) -7.108,9.00E-01 and 9.54E-01 and 9.75E-01
same,"dose-response signal (normalized), SI Fig 8",PfcProRS; Log[inhibitor] (M) -7.409,1.04E+00 and 1.03E+00 and 9.91E-01
same,"dose-response signal (normalized), SI Fig 8",PfcProRS; Log[inhibitor] (M) -7.710,9.51E-01 and 8.62E-01 and 1.00E+00
same,"dose-response signal (normalized), SI Fig 8",PfcProRS; Log[inhibitor] (M) -8.000,9.32E-01 and 1.04E+00 and 9.09E-01
same,"dose-response signal (normalized), SI Fig 8",PfcProRS; Log[inhibitor] (M) -8.301,9.87E-01 and 9.76E-01 and 8.57E-01
same,"dose-response signal (normalized), SI Fig 8",PfcProRS; Log[inhibitor] (M) -8.602,1.04E+00 (2×) and 9.76E-01
same,"dose-response signal (normalized), SI Fig 8",PfcProRS; Log[inhibitor] (M) -9.000,9.49E-01 and 9.11E-01 and 1.01E+00
same,"dose-response signal (normalized), SI Fig 8",PfcProRS; Log[inhibitor] (M) -9.301,1.10E+00 and 1.02E+00 and 1.05E+00
same,PfcProRS -- best Kd,"PfcProRS; SI Fig 16a, values on -log scale",5.845
